Measurements as given in US7462345B2, “Radionuclide labeling of vitamin B12 and coenzymes thereof” (Mayo Foundation for Medical Education and Research, priority 1995, dated 2008).
“And” between values parts separate entries of the source, which are not always exact repeats. Equal entries are not always repeated.

What was measured:
transplanted sarcoma = test: Tumor imaging, mice with transplanted sarcoma, gamma well counting; type: in vivo; set-up: Fat activity, gamma well counting / Muscle activity, gamma well counting: unit not given here
Excerpt: All images for the in vivo studies were obtained on a GE 500 maxicamera using a LEAP collimator with a 20% window about the 140 keV energy peak of technetium, and a medium energy collimator with a 20% window about the 174 keV and 247 keV energy peaks of Indium. A 256×256 matrix with a dedicated pinnacle computer system was used to collect and analyze the data.

[1] = Biodistribution in mice at 24 hours, gamma well counting; type: in vivo, Balb-C mice
[2] = Gastrointestinal absorption after oral administration, modified Schillings test; type: in vivo, mice; set-up: Kidney activity, gamma well counting / Liver activity, gamma well counting / Pancreas activity, gamma well counting / Heart activity, gamma well counting / Spleen activity, gamma well counting: unit not given here
Description: B. Gastrointestinal Absorption: Methylcobalamin-b-(4-aminobutyl)-DTPA and DTPA alone were labeled as described above, with the exception that the 3 mCi Indium/300 μg/100 μl normal saline solutions were not diluted. […] The mice were sacrificed at 24 hrs, dissected, and studied as described above.
A modified Schillings test was performed on two mice. Specifically, each mouse received via subcutaneous and intraperitoneal administration, a 1000 μg loading dose of non-labeled methylcobalamin-b-(4-aminobutyl)amide-DTPA analogue. At 24 hrs, the mice were fed 2-3 drops of Indium-labeled methylcobalamin-b-(4-aminobutyl)amide-DTPA-complex. Urine and feces were collected from the three groups of mice after oral administration. The mice were sacrificed at 24 hours after ingestion of tracer and images and biodistribution data were obtained at that time.

[3] = 500 μCi intraperitoneal, 24 hours, tumor mice 19-24
[4] = approximately 100 μCi tailvein injection, tumor mice 25-30
[5] = 500 μCi intraperitoneal, 24 hours, mice 1-6
[6] = 500 μCi subcutaneously, mice 7-12
[7] = approximately 30 μCi orally, 24 hrs, mice 13-18
[8] = approximately 30 μCi orally, 24 hrs, mice 13-18, BKG = background

SMILES: O=C([O-])CN(CCN(CC(=O)[O-])CC(=O)[O-])CCN(CC(=O)[O-])CC(=O)[O-].[111In+3].[H+].[H+] [DTPA-^111In]
- Fat activity, gamma well counting (transplanted sarcoma; [3]): 13.7 and 17.9 and 19.2
- Heart activity, gamma well counting (transplanted sarcoma; [3]): 5.0 and 8.0 and 9.7
- Kidney activity, gamma well counting (transplanted sarcoma; [3]): 116.5 and 180.7 and 231.2
- Muscle activity, gamma well counting (transplanted sarcoma; [3]): 7.2 and 6.4 and 6.8
- Pancreas activity, gamma well counting (transplanted sarcoma; [3]): 7.1 and 11.3 and 13.9
- Tumor activity, gamma well counting (transplanted sarcoma; [3]): 52.8 and 69.3 and 73.1
- Fat activity, gamma well counting (transplanted sarcoma; [4]): 0.93 and 0.75 and 0.79
- Heart activity, gamma well counting (transplanted sarcoma; [4]): 0.94 and 0.61 and 0.85
- Kidney activity, gamma well counting (transplanted sarcoma; [4]): 14.0 and 9.9 and 10.2
- Liver activity, gamma well counting (transplanted sarcoma; [4]): 1.6 and 1.3 and 1.4
- Lung activity, gamma well counting (transplanted sarcoma; [4]): 1.7 and 0.87 and 0.93
- Spleen activity, gamma well counting (transplanted sarcoma; [4]): 1.9 and 1.4 and 1.6
- Tumor activity, gamma well counting (transplanted sarcoma; [4]): 5.0 and 2.8 and 3.4
- concentration within the transplanted tumors, times less than that of adenosylcobalamin-DTPA-^111In (transplanted sarcoma; mouse, in vivo): 10-20 times
- Fat activity, gamma well counting [1, 5]: 12.6 and 19.5 and 18.8
- Heart activity, gamma well counting [1, 5]: 10.3 and 6.9 and 12.5
- Liver activity, gamma well counting [1, 5]: 56.9 and 41.5 and 66.1
- Lung activity, gamma well counting [1, 5]: 6.2 and 6.0 and 10.5
- Muscle activity, gamma well counting [1, 5]: 5.4 and 5.6 and 5.0
- Pancreas activity, gamma well counting [1, 5]: 13.4 and 13.0 and 14.1
- Heart activity, gamma well counting [1, 6]: 5.6 and 5.0 and 4.8
- Kidney activity, gamma well counting [1, 6]: 119.4 and 117.3 and 110.1
- Liver activity, gamma well counting [1, 6]: 24.0 and 25.5 and 23.2
- Lung activity, gamma well counting [1, 6]: 5.4 and 5.3 and 5.0
- Pancreas activity, gamma well counting [1, 6]: 6.0 and 6.7 and 5.9
- Spleen activity, gamma well counting [1, 6]: 19.5 and 19.0 and 18.1
- activity per organ or tissue sample, times less when compared to the methyl and adenosylcobalamin analogs ([1]; mouse, in vivo): 5-12 times
- Kidney activity, gamma well counting [2, 7]: 0.64 and 0.54 and 0.59
- Liver activity, gamma well counting [2, 7]: 0.28 and 0.21 and 0.30
- Pancreas activity, gamma well counting [2, 7]: 0.93 and 0.96 and 0.61
- Spleen activity, gamma well counting [2, 7]: 0.62 and 0.67 and 0.48
- Fat activity, gamma well counting [2, 8]: <BKG
- Heart activity, gamma well counting [2, 8]: <BKG
- Lung activity, gamma well counting [2, 8]: <BKG
- Muscle activity, gamma well counting [2, 8]: <BKG
- activity in the heart, lungs, muscle, or fat tissue samples ([2]; oral): No activity was detected
- radioactivity in urine and stool ([2]; oral): detected in urine and stool by two hours
- absorption from the gastrointestinal tract ([2]; oral administration, mice): also absorbed from the gastrointestinal tract, but to a lesser degree

SMILES: CC1=C2N=C(C=C3N=C(C(C)=C4[N-]C(C(CC(N)=O)C4(C)CCC(=O)NCC(C)OP(=O)([O-])OC4C(CO)OC(n5cnc6cc(C)c(C)cc65)C4O)C4(C)N=C1C(CCC(=O)NCCCCNC(=O)CN(CCN(CCN(CC(=O)[O-])CC(=O)[O-])CC(=O)[O-])CC(=O)[O-])C4(C)CC(N)=O)C(CCC(N)=O)C3(C)C)C(CCC(N)=O)C2(C)CC(N)=O.[111In+3].[CH2-]C1OC(n2cnc3c(N)ncnc32)C(O)C1O.[Co+3] (stereo not drawn) [adenosylcobalamin-b-(4-aminobutyl)-amide-DTPA-^111In]
- Heart activity, gamma well counting (transplanted sarcoma; [3]): 165.0 and 134.8 and 157.8
- Kidney activity, gamma well counting (transplanted sarcoma; [3]): 3886.9 and 3115.6 and 3592.8
- Liver activity, gamma well counting (transplanted sarcoma; [3]): 691.0 and 464.8 and 675.0
- Lung activity, gamma well counting (transplanted sarcoma; [3]): 318.8 and 230.0 and 335.2
- Pancreas activity, gamma well counting (transplanted sarcoma; [3]): 445.0 and 242.7 and 439.0
- Spleen activity, gamma well counting (transplanted sarcoma; [3]): 576.3 and 309.5 and 478.3
- Tumor activity, gamma well counting (transplanted sarcoma; [3]): 954.7 and 1426.0 and 1183.1
- tumor activity relative to heart, lungs, fat, and muscle (transplanted sarcoma; IP and IV routes, 24 hours): 4-12 times
- tumor activity relative to liver, spleen, and pancreas (transplanted sarcoma; IP and IV routes, 24 hours): two to four times greater activity
- uptake within the transplanted sarcoma (transplanted sarcoma; at 24 hours, visually and by gamma well counting): significant amount
- Fat activity, gamma well counting [1, 5]: 101.4 and 147.3 and 102.8
- Heart activity, gamma well counting [1, 5]: 134.7 and 189.4 and 171.2
- Kidney activity, gamma well counting [1, 5]: 3717.5 and 3299.5 and 3462.7
- Liver activity, gamma well counting [1, 5]: 943.3 and 823.4 and 768.6
- Lung activity, gamma well counting [1, 5]: 130.9 and 180.1 and 113.1
- Pancreas activity, gamma well counting [1, 5]: 304.2 and 319.9 and 310.3
- Spleen activity, gamma well counting [1, 5]: 433.1 and 405.3 and 366.8
- Heart activity, gamma well counting [1, 6]: 35.0 and 29.8 and 31.3
- Kidney activity, gamma well counting [1, 6]: 621.4 and 700.5 and 601.7
- Liver activity, gamma well counting [1, 6]: 126.4 and 111.7 and 115.8
- Lung activity, gamma well counting [1, 6]: 38.4 and 51.2 and 40.6
- Pancreas activity, gamma well counting [1, 6]: 40.0 and 39.3 and 41.2

SMILES: CC1=C2N=C(C=C3N=C(C(C)=C4[N-]C(C(CC(N)=O)C4(C)CCC(=O)NCC(C)OP(=O)([O-])OC4C(CO)OC(n5cnc6cc(C)c(C)cc65)C4O)C4(C)N=C1C(CCC(=O)NCCCCNC(=O)CN(CCN(CCN(CC(=O)[O-])CC(=O)[O-])CC(=O)[O-])CC(=O)[O-])C4(C)CC(N)=O)C(CCC(N)=O)C3(C)C)C(CCC(N)=O)C2(C)CC(N)=O.[111In+3].[CH3-].[Co+3] (stereo not drawn) [methylcobalamin-b-(4-aminobutyl)-amide-DTPA-^111In]
- Heart activity, gamma well counting (transplanted sarcoma; [4]): 21.7 and 11.4 and 16.9
- Lung activity, gamma well counting (transplanted sarcoma; [4]): 34.4 and 19.9 and 21.3
- Muscle activity, gamma well counting (transplanted sarcoma; [4]): 23.5 and 15.5 and 14.5
- Pancreas activity, gamma well counting (transplanted sarcoma; [4]): 38.4 and 21.3 and 30.3
- Kidney activity, gamma well counting [2, 7]: 4.3 and 4.1 and 3.1
- Liver activity, gamma well counting [2, 7]: 0.82 and 0.80 and 0.73
- Pancreas activity, gamma well counting [2, 7]: 0.75 and 0.76 and 1.1
- Fat activity, gamma well counting [2, 8]: <BKG
- Heart activity, gamma well counting [2, 8]: 0.54 and 0.50
- Muscle activity, gamma well counting [2, 8]: <BKG
- activity in the urine by gamma well counting ([2]; oral, mice not flushed with non-labeled methylcobalamin-b-(4-aminobutyl)amide-DTPA): no discernable activity was detected
- radioactivity in urine ([2]; oral, mice that underwent the modified Schillings test (flushed)): detectable radioactivity within their urine at one hour
